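In this assay, cells in 96-well plates receive the compound at five concentrations for 48 hours. Endpoints are linearly interpolated between the surrounding concentrations. At the GI50, growth is halved.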 Activity calls are given as the source filed them. Cut-off read from the data, not from the text of the source: active = GI50 up to about 1.1 µM and inactive = higher.
Legend:
Experiment in all cases: inhibition of tumour cell growth, NCI panel, 48 h
A498 = test system: A498
ACHN = test system: ACHN
COLO 205 = test system: COLO 205
HOP-62 = test system: HOP-62
HOP-92 = test system: HOP-92
HT-29 = test system: HT-29
K562 = test system: K562
LOX IMVI = test system: LOX IMVI
NCI-H226 = test system: NCI-H226
OVCAR-8 = test system: OVCAR-8
SK-MEL-2 = test system: SK-MEL-2
SK-MEL-5 = test system: SK-MEL-5
SK-OV-3 = test system: SK-OV-3
SN12C = test system: SN12C
SW-620 = test system: SW-620
TK-10 = test system: TK-10
UACC-257 = test system: UACC-257
UO-31 = test system: UO-31

Measured: GI50

COC(=O)[C@H](Cc1ccccc1)NC(=O)/C(=C/C(C)C)NC(=O)[C@H](CCSC)NC=O
inactive: A498 > 100 µM | ACHN > 100 µM | COLO 205 > 100 µM | HOP-62 > 100 µM | HOP-92 > 100 µM | HT-29 > 100 µM | K562 > 100 µM | LOX IMVI > 100 µM | NCI-H226 > 100 µM | OVCAR-8 > 100 µM | SK-MEL-2 > 100 µM | SK-MEL-5 > 100 µM | SK-OV-3 > 100 µM | SN12C > 100 µM | SW-620 > 100 µM | TK-10 > 100 µM | UACC-257 > 100 µM | UO-31 > 100 µM

CN1C/C(=C\c2ccc(C(=O)O)cc2)C(=O)/C(=C/c2ccc(C(=O)O)cc2)C1
inactive: A498 > 100 µM | ACHN > 100 µM | COLO 205 > 100 µM | HOP-62 > 100 µM | HOP-92 > 100 µM | HT-29 > 100 µM | K562 > 100 µM | LOX IMVI > 100 µM | NCI-H226 > 100 µM | OVCAR-8 > 100 µM | SK-MEL-2 > 100 µM | SK-MEL-5 > 100 µM | SK-OV-3 > 100 µM | SN12C > 100 µM | SW-620 > 100 µM | TK-10 > 100 µM | UACC-257 > 100 µM | UO-31 > 100 µM

O=C(O)C(Cl)(Cl)Cl
inactive: ACHN > 100 µM | COLO 205 > 100 µM | HOP-92 > 100 µM | K562 > 100 µM | LOX IMVI > 100 µM | NCI-H226 > 100 µM | OVCAR-8 > 100 µM | SK-MEL-2 > 100 µM | SK-MEL-5 > 100 µM | SK-OV-3 > 100 µM | SN12C > 100 µM | SW-620 > 100 µM | TK-10 > 100 µM | UACC-257 > 100 µM | UO-31 > 100 µM

C/N=c1\ss/c(=N\C(=S)N(C)C)n1-c1ccccc1
inactive: A498 44.6 µM | ACHN > 100 µM | COLO 205 > 100 µM | HOP-62 > 80.7 µM | HOP-92 39.5 µM | HT-29 > 31.6 µM | K562 > 100 µM | LOX IMVI > 100 µM | NCI-H226 > 100 µM | OVCAR-8 > 100 µM | SK-MEL-2 > 64 µM | SK-MEL-5 > 20.7 µM | SK-OV-3 > 100 µM | SN12C > 100 µM | SW-620 > 100 µM | TK-10 > 100 µM | UACC-257 > 100 µM | UO-31 > 55.7 µM

O=c1cc2ccccc2nn1Cc1ccccc1Cl
inactive: A498 > 100 µM | ACHN > 100 µM | COLO 205 > 100 µM | HOP-62 > 100 µM | HOP-92 71.9 µM | HT-29 > 100 µM | K562 85.3 µM | LOX IMVI > 100 µM | NCI-H226 > 100 µM | OVCAR-8 > 100 µM | SK-MEL-2 > 100 µM | SK-MEL-5 > 100 µM | SK-OV-3 > 100 µM | SN12C > 100 µM | SW-620 > 100 µM | TK-10 > 100 µM | UACC-257 > 100 µM | UO-31 29.5 µM

S=C(N/N=C/c1ccccc1)NC12CC3CC(CC(C3)C1)C2
inactive: A498 63.4 µM | ACHN 51.8 µM | COLO 205 27 µM | HOP-62 > 100 µM | HOP-92 6.18 µM | HT-29 5.31 µM | K562 9.27 µM | LOX IMVI 22.8 µM | NCI-H226 97.7 µM | OVCAR-8 60 µM | SK-MEL-2 40 µM | SK-MEL-5 27.2 µM | SK-OV-3 > 100 µM | SN12C 17.7 µM | SW-620 30.5 µM | TK-10 > 100 µM | UACC-257 26.1 µM | UO-31 > 100 µM

O=C(Cc1ccccc1)NN1C(=O)C(Cl)C1c1ccc(Cl)cc1 (stereo not drawn)
inactive: ACHN > 100 µM | COLO 205 > 100 µM | HOP-62 > 100 µM | HT-29 > 100 µM | K562 72.9 µM | LOX IMVI > 100 µM | NCI-H226 > 100 µM | OVCAR-8 > 100 µM | SK-MEL-2 > 100 µM | SK-MEL-5 > 100 µM | SK-OV-3 > 100 µM | SN12C > 100 µM | SW-620 > 100 µM | TK-10 > 100 µM | UACC-257 86.3 µM | UO-31 62.4 µM

CC(=O)OCCOCNC(=S)N/N=C(\C)c1cnc2ccccc2n1
inactive: A498 > 100 µM | ACHN 11.5 µM | COLO 205 20.1 µM | HOP-62 86.3 µM | HT-29 29.6 µM | K562 43.4 µM | LOX IMVI 38.6 µM | NCI-H226 36.4 µM | OVCAR-8 33.9 µM | SK-MEL-2 33.3 µM | SK-MEL-5 25.1 µM | SK-OV-3 33.3 µM | SN12C 50.4 µM | SW-620 28.2 µM | TK-10 > 100 µM | UACC-257 48.4 µM | UO-31 41.5 µM

O=C1c2ccccc2CCCCCCCCCCC12OCCCO2
inactive: A498 32.1 µM | ACHN 52.4 µM | COLO 205 19.2 µM | HOP-62 49.9 µM | HT-29 15.1 µM | K562 68.4 µM | LOX IMVI 29.2 µM | NCI-H226 35.6 µM | OVCAR-8 87.3 µM | SK-MEL-2 24.3 µM | SK-MEL-5 35.6 µM | SK-OV-3 80.5 µM | SN12C 55 µM | TK-10 > 100 µM | UACC-257 24 µM | UO-31 79.3 µM

CC(=O)C(CN(C)C)C(c1ccccc1)c1c(O)c2ccccc2oc1=O (stereo not drawn)
inactive: ACHN > 100 µM | COLO 205 > 100 µM | HOP-62 > 100 µM | HOP-92 49.9 µM | HT-29 > 100 µM | K562 > 100 µM | LOX IMVI > 100 µM | NCI-H226 > 100 µM | OVCAR-8 > 100 µM | SK-MEL-2 > 100 µM | SK-MEL-5 > 100 µM | SK-OV-3 > 100 µM | SN12C > 100 µM | SW-620 > 100 µM | TK-10 > 100 µM | UACC-257 > 100 µM

O=c1cc[nH]c2c1ccc1ncccc12
inactive: A498 > 100 µM | ACHN > 100 µM | COLO 205 > 100 µM | HOP-62 > 100 µM | HT-29 > 100 µM | K562 > 100 µM | LOX IMVI > 100 µM | NCI-H226 > 100 µM | OVCAR-8 > 100 µM | SK-MEL-2 > 100 µM | SK-MEL-5 > 100 µM | SK-OV-3 > 100 µM | SN12C > 100 µM | SW-620 > 100 µM | TK-10 > 100 µM | UACC-257 > 100 µM | UO-31 > 100 µM

CN(C)CC1(Cc2ccccc2)CC/C(=C\c2ccccc2)C1=O (stereo not drawn)
inactive: A498 33.1 µM | ACHN 50.7 µM | COLO 205 32.9 µM | HOP-62 > 100 µM | HOP-92 51.4 µM | HT-29 20.7 µM | K562 29.4 µM | LOX IMVI 29.6 µM | NCI-H226 92.9 µM | OVCAR-8 34.5 µM | SK-MEL-2 50.9 µM | SK-MEL-5 22.5 µM | SN12C 69.2 µM | SW-620 20.8 µM | TK-10 > 100 µM | UACC-257 32.4 µM | UO-31 47.8 µM

CCOc1ccc(C2=C(Cl)c3cc(OC)c(OC)cc3C2Cl)cc1 (stereo not drawn)
inactive: A498 19.8 µM | ACHN 31.6 µM | COLO 205 63.5 µM | HOP-92 25.4 µM | HT-29 32.1 µM | K562 > 10 µM | LOX IMVI 19.5 µM | NCI-H226 30.8 µM | OVCAR-8 36.4 µM | SK-MEL-2 23.1 µM | SK-MEL-5 18.3 µM | SK-OV-3 > 100 µM | SN12C 42.4 µM | SW-620 29.2 µM | TK-10 79.8 µM | UO-31 45 µM

COC1(Cc2ccccc2)C(=O)c2ccccc2N1C(C)=O (stereo not drawn)
inactive: A498 > 100 µM | ACHN > 100 µM | COLO 205 > 100 µM | HOP-62 > 100 µM | HOP-92 > 100 µM | HT-29 > 100 µM | K562 > 100 µM | OVCAR-8 > 100 µM | SK-MEL-2 > 100 µM | SK-OV-3 > 100 µM | SN12C > 100 µM | SW-620 > 100 µM | UACC-257 > 100 µM | UO-31 > 100 µM

O=C(CC(=O)c1ccccc1)CC(O)(c1ccccc1)c1ccccc1
inactive: A498 12.1 µM | ACHN 6.27 µM | COLO 205 10.5 µM | HOP-62 3.34 µM | HOP-92 5.21 µM | HT-29 10.4 µM | K562 2.47 µM | NCI-H226 3.87 µM | OVCAR-8 5.26 µM | SK-MEL-2 9.95 µM | SK-MEL-5 3.52 µM | SK-OV-3 9.31 µM | SN12C 4.99 µM | SW-620 4.02 µM | TK-10 9.82 µM | UACC-257 13.2 µM | UO-31 5.7 µM

CCOC(=O)/C=C/n1c2ccccc2c(=O)c2cc(OC)ccc21
inactive: A498 > 100 µM | ACHN > 100 µM | COLO 205 > 100 µM | HOP-62 > 100 µM | HOP-92 57.9 µM | HT-29 38.5 µM | K562 > 100 µM | LOX IMVI 20.7 µM | NCI-H226 > 100 µM | OVCAR-8 > 100 µM | SK-MEL-2 > 100 µM | SK-MEL-5 > 100 µM | SK-OV-3 > 100 µM | SN12C > 100 µM | TK-10 74.5 µM | UACC-257 > 100 µM | UO-31 > 100 µM

CCCCCCCSCC1OC(n2cnc3c(N)ncnc32)C(O)C1O (stereo not drawn)
inactive: A498 14.2 µM | ACHN 25.9 µM | COLO 205 14 µM | HOP-92 6.43 µM | HT-29 1.42 µM | K562 22.8 µM | LOX IMVI 49.9 µM | NCI-H226 > 100 µM | OVCAR-8 14.4 µM | SK-MEL-2 20.3 µM | SK-MEL-5 16.2 µM | SN12C 21.8 µM | SW-620 13.3 µM | TK-10 > 100 µM | UACC-257 18.3 µM
